Patent publication US9415019B2, “Nanocapsules with a polymer shell” (Universidade de Santiago de Compostela, priority 2011, dated 2016)
pIC50: −log10 of the molar value.

Tested on: lung cancer cell line NCI-H460
Assay: inhibition of cell proliferation
Type: cell-based
Conditions: Homo sapiens
Procedure: In order to evaluate the potential of HA nanocapsules encapsulating cytostatic docetaxel molecule to inhibit cell proliferation of lung cancer cell line NCI-H460, HA nanocapsules were prepared using hexadecyltrimethylammonium bromide (1.8 mg) according to the procedure described in Example 6. The results in FIG. 7 show the greatest ability to inhibit the proliferation of nanocapsules encapsulating docetaxel compared to the free molecule when systems are brought into contact for 2 to 48 h with the cancer cells. Moreover, one can see the safety of the systems without docetaxel. IC50 values, the concentration which produces 50% mortality of the population, was calculated using Graph Pad Prism 2.1 (Graph Pad Software).
In order to evaluate the potential of Pasn nanocapsules encapsulating docetaxel to inhibit cell proliferation of lung cancer cell line NCI-H460, PAsn nanocapsules were prepared using hexadecyltrimethylammonium bromide (1.8 mg) according to the procedure described in Example 12. The results in FIG. 11 show the greatest ability to inhibit the proliferation of nanocapsules encapsulating docetaxel compared to the free molecule when systems are brought into contact for 2 to 48 h with the cancer cells. Moreover, one can see the safety of the systems without docetaxel. IC50 values were calculated using Graph Pad Prism 2.1 (Graph Pad Software).

CC(=O)O[C@@]12CO[C@@H]1C[C@H](O)[C@@]1(C)C(=O)[C@H](O)C3=C(C)[C@@H](OC(=O)[C@H](O)[C@@H](NC(=O)OC(C)(C)C)c4ccccc4)C[C@@](O)([C@@H](OC(=O)c4ccccc4)[C@H]21)C3(C)C [docetaxel]
pIC50 (NCI-H460, in contact with the cells for 2 h): 6.98 | pIC50 (NCI-H460, in contact with the cells for 48 h): 7.44
